Values after ≈ are worked out from the molar mass of the structure shown. Read-outs that look alike come from different tables or passages of the source.
Legend:
Assay type in all cases: cell-based
[1] = test system: M. suipneumoniae JF 435; assay: Anti-mycoplasmal activity in vitro MIC; conditions: Mesomycoplasma hyopneumoniae, JF435, 144 h
[2] = test system: M. suipneumoniae NCTC 10110; assay: Anti-mycoplasmal activity in vitro MIC; conditions: Mesomycoplasma hyopneumoniae, NCTC10110, 144 h
[3] = test system: M. suipneumoniae UCD 1; assay: Anti-mycoplasmal activity in vitro MIC; conditions: Mesomycoplasma hyopneumoniae, UCD1, 144 h
[4] = test system: M. bovis NCTC 10131; assay: microbe, parasite or virus in culture; conditions: NCTC10131, 144 h
[5] = test system: M. suipneumoniae Str. 11; assay: Anti-mycoplasmal activity in vitro MIC; conditions: Mesomycoplasma hyopneumoniae
[6] = test system: Strep. pyogenes R80/421; assay: Human bacteria MIC; conditions: Streptococcus pyogenes
Protocol: (§1) The values were determined by serial dilutions in nutrient agar with 5% chocolated horse blood after incubations for 18 hours at 37° C.

[7] = test system: Haemophilus influenzae Q1; assay: Human bacteria MIC
Protocol: as §1

[8] = test system: Staph. aureus W2827; assay: Human bacteria MIC; conditions: Staphylococcus aureus
Protocol: as §1

[9] = test system: Staph. aureus Oxford; assay: Human bacteria MIC; conditions: Staphylococcus aureus; Staph. aureus Oxford; nutrient agar, 5% chocolated horse blood, 18 hours 37° C.; read-out: M.I.C.
Protocol: as §1

[10] = test system: Strep. pneumoniae CN33; assay: Human bacteria MIC; conditions: Streptococcus pneumoniae; Strep. pneumoniae CN33; nutrient agar, 5% chocolated horse blood, 18 hours 37° C.; read-out: M.I.C.
Protocol: as §1

[11] = test system: Staph. aureus Russell; assay: Human bacteria MIC; conditions: Staphylococcus aureus; Staph. aureus Russell; nutrient agar, 5% chocolated horse blood, 18 hours 37° C.; read-out: M.I.C.
Protocol: as §1

[12] = test system: Strep. Group C 64/848; assay: Human bacteria MIC
Protocol: as §1

[13] = test system: Pasteurella multocida 1633; assay: Human bacteria MIC
Protocol: as §1

[14] = test system: E. coli ESS; assay: Human bacteria MIC; conditions: Escherichia coli
Protocol: as §1

[15] = test system: Neisseria catarralis 1502; assay: Human bacteria MIC
Protocol: as §1

[16] = test system: P. mirabilis 889; assay: Human bacteria MIC
Protocol: as §1

[17] = test system: E. Coli NCT 10418; assay: Human bacteria MIC; conditions: Escherichia coli
Protocol: as §1

[18] = test system: Strep. faecalis I; assay: Human bacteria MIC; conditions: Enterococcus faecalis, nutrient agar, 5% chocolated horse blood, 18 hours 37° C.
Protocol: as §1

[19] = test system: Bacillus subtilis 6633; assay: Human bacteria MIC
Protocol: as §1

[20] = test system: Corneybacterium xerosis 9755; assay: Human bacteria MIC
Protocol: as §1

[21] = test system: K. aerogenes A; assay: Human bacteria MIC; conditions: Klebsiella aerogenes
Protocol: as §1

[22] = test system: Ps. aeruginosa 10662; assay: Human bacteria MIC
Protocol: as §1

[23] = test system: Strep Group B 2788; assay: Human bacteria MIC
Protocol: as §1

[24] = test system: Bord. brochiasetpica B09; assay: Veterinary bacteria MIC; conditions: Diagnostic Sensitivity Test Agar, 18 hours 37° C.
Protocol: (§2) The values were determined using a two fold serial dilutions in Diagnostic Sensitivity Test Agar with an inoculum of 10^4 organisms and incubation for 18 hours at 37° C.

[25] = test system: Corynebacterium pyogenes CY1; assay: Veterinary bacteria MIC; conditions: Trueperella pyogenes
Protocol: as §2

[26] = test system: Bord. bronchiseptica B08; assay: Veterinary bacteria MIC; conditions: Bordetella bronchiseptica; Bord. bronchiseptica B08; Diagnostic Sensitivity Test Agar, 18 hours 37° C.; read-out: M.I.C.
Protocol: as §2

[27] = test system: M. hyorhinis ATCC 23234; assay: Anti-mycoplasmal activity in vitro MIC; conditions: Mesomycoplasma hyorhinis, ATCC23234, 144 h
[28] = test system: M. pneumoniae ATCC 15492; assay: Anti-mycoplasmal activity in vitro MIC; conditions: Mycoplasmoides pneumoniae, ATCC15492, 144 h
[29] = M. suipneumoniae JF 435, Friis broth, 0.9% agarose, 6 days 37° C., read-out: M.I.C.
[30] = M. suipneumoniae NCTC 10110, Friis broth, 0.9% agarose, 6 days 37° C., read-out: M.I.C.
[31] = M. suipneumoniae UCD 1, Friis broth, 0.9% agarose, 6 days 37° C., read-out: M.I.C.
[32] = Strep. pyogenes R80/421, nutrient agar, 5% chocolated horse blood, 18 hours 37° C., read-out: M.I.C.
[33] = Haemophilus influenzae, Q1, 18 h
[34] = Staph. aureus W2827, nutrient agar, 5% chocolated horse blood, 18 hours 37° C., read-out: M.I.C.
[35] = Proteus mirabilis, P. mirabilis 889, nutrient agar, 5% chocolated horse blood, 18 hours 37° C., read-out: M.I.C.
[36] = E. Coli NCT 10418, nutrient agar, 5% chocolated horse blood, 18 hours 37° C., read-out: M.I.C.
[37] = Corneybacterium xerosis 9755, nutrient agar, 5% chocolated horse blood, 18 hours 37° C., read-out: M.I.C.
[38] = K. aerogenes A, nutrient agar, 5% chocolated horse blood, 18 hours 37° C., read-out: M.I.C.
[39] = Pseudomonas aeruginosa, Ps. aeruginosa 10662, nutrient agar, 5% chocolated horse blood, 18 hours 37° C., read-out: M.I.C.
[40] = Corynebacterium pyogenes CY1, Diagnostic Sensitivity Test Agar, 18 hours 37° C., read-out: M.I.C.
[41] = 144 h, M. suipneumoniae Str. 11, Friis broth, 0.9% agarose, 6 days 37° C., read-out: M.I.C.
[42] = Strep. Group C 64/848, nutrient agar, 5% chocolated horse blood, 18 hours 37° C., read-out: M.I.C.
[43] = Pasteurella multocida 1633, nutrient agar, 5% chocolated horse blood, 18 hours 37° C., read-out: M.I.C.
[44] = E. coli ESS, nutrient agar, 5% chocolated horse blood, 18 hours 37° C., read-out: M.I.C.
[45] = Neisseria catarralis 1502, nutrient agar, 5% chocolated horse blood, 18 hours 37° C., read-out: M.I.C.
[46] = Bacillus subtilis 6633, nutrient agar, 5% chocolated horse blood, 18 hours 37° C., read-out: M.I.C.
[47] = Strep Group B 2788, nutrient agar, 5% chocolated horse blood, 18 hours 37° C., read-out: M.I.C.
[48] = M. pneumoniae ATCC 15492, Friis broth, 0.9% agarose, 6 days 37° C., read-out: M.I.C.

C/C(=C\C(=O)OC1CCC(=NO)CC1)C[C@@H]1OC[C@H](C[C@@H]2O[C@H]2[C@@H](C)[C@H](C)O)[C@@H](O)[C@H]1O (stereo partly shown) [Example 3, 4-Hydroxyiminocyclohexyl monate A]
MIC [1, 29]: 0.5 µg/mL (≈ 1.1 µM)
MIC [2, 30]: 0.5 µg/mL (≈ 1.1 µM)
MIC [3, 31]: 0.5 µg/mL (≈ 1.1 µM)
MIC [4]: ≤ 0.01 µg/mL
MIC ([5]; STR.11, 144 h): 0.25 µg/mL (≈ 0.549 µM)
MIC [6, 32]: 0.5 µg/mL (≈ 1.1 µM)
MIC [7, 33]: 0.25 µg/mL (≈ 0.549 µM)
MIC [8, 34]: 5 µg/mL (≈ 11 µM)
MIC [9]: 2.5 µg/mL (≈ 5.49 µM)
MIC [10]: 0.5 µg/mL (≈ 1.1 µM)
MIC [11]: 5 µg/mL (≈ 11 µM)
MIC ([12]; 18 h): 1 µg/mL (≈ 2.2 µM)
MIC ([13]; Pasteurella multocida, 1633, 18 h): 1 µg/mL (≈ 2.2 µM)
MIC ([14]; 18 h): 1 µg/mL (≈ 2.2 µM)
MIC ([15]; Neisseria, 1502, 18 h): 1 µg/mL (≈ 2.2 µM)
MIC [16, 35]: > 100 µg/mL
MIC [17, 36]: > 100 µg/mL
MIC [18]: 25 µg/mL (≈ 54.9 µM)
MIC ([19]; Bacillus subtilis, 6633, 18 h): 1 µg/mL (≈ 2.2 µM)
MIC [20, 37]: > 100 µg/mL
MIC [21, 38]: > 100 µg/mL
MIC [22, 39]: > 100 µg/mL
MIC ([23]; 18 h): 1 µg/mL (≈ 2.2 µM)
MIC [24]: 20 µg/mL (≈ 43.9 µM)
MIC [25, 40]: > 80 µg/mL
MIC [26]: > 80 µg/mL
MIC [27]: 0.25 µg/mL (≈ 0.549 µM)
MIC [28]: 1 µg/mL (≈ 2.2 µM)

C/C(=C\C(=O)OCCCC(=NO)c1ccccc1)C[C@@H]1OC[C@H](C[C@@H]2O[C@H]2[C@@H](C)[C@H](C)O)[C@@H](O)[C@H]1O [Example 1, 4-Hydroxyimino-4-phenylbutyl monate A]
MIC [1, 29]: 0.25 µg/mL (≈ 0.494 µM)
MIC [2, 30]: 0.25 µg/mL (≈ 0.494 µM)
MIC [3, 31]: 0.25 µg/mL (≈ 0.494 µM)
MIC [4]: ≤ 0.01 µg/mL
MIC [5, 41]: 0.1 µg/mL (≈ 0.198 µM)
MIC [6, 32]: 2.5 µg/mL (≈ 4.94 µM)
MIC ([7]; Haemophilus influenzae Q1, nutrient agar, 5% chocolated horse blood, 18 hours 37° C., read-out: M.I.C.): 0.5 µg/mL (≈ 0.989 µM)
MIC [8, 34]: 2.5 µg/mL (≈ 4.94 µM)
MIC [9]: 2.5 µg/mL (≈ 4.94 µM)
MIC [10]: 0.5 µg/mL (≈ 0.989 µM)
MIC [11]: 2.5 µg/mL (≈ 4.94 µM)
MIC [12, 42]: 2.5 µg/mL (≈ 4.94 µM)
MIC [13, 43]: 5 µg/mL (≈ 9.89 µM)
MIC [14, 44]: 2.5 µg/mL (≈ 4.94 µM)
MIC [15, 45]: 0.2 µg/mL (≈ 0.396 µM)
MIC [16, 35]: > 100 µg/mL
MIC [17, 36]: > 100 µg/mL
MIC [18]: > 100 µg/mL
MIC [19, 46]: 1 µg/mL (≈ 1.98 µM)
MIC [21, 38]: > 100 µg/mL
MIC [22, 39]: > 100 µg/mL
MIC [23, 47]: 2.5 µg/mL (≈ 4.94 µM)
MIC [24]: 20 µg/mL (≈ 39.6 µM)
MIC ([25]; CY1, 18 h): > 80 µg/mL
MIC [26]: 40 µg/mL (≈ 79.1 µM)
MIC [27]: 0.1 µg/mL (≈ 0.198 µM)
MIC [28, 48]: 2.5 µg/mL (≈ 4.94 µM)

C/C(=C\C(=O)OCCCC(=NNC(N)=O)c1ccccc1)C[C@@H]1OC[C@H](C[C@@H]2O[C@H]2[C@@H](C)[C@H](C)O)[C@@H](O)[C@H]1O [Example 2, 4-Phenyl-4-semicarbazonobutyl monate A]
MIC [1]: 0.5 µg/mL (≈ 0.913 µM)
MIC [2]: 0.5 µg/mL (≈ 0.913 µM)
MIC [3]: 0.5 µg/mL (≈ 0.913 µM)
MIC [4]: 0.05 µg/mL (≈ 0.0913 µM)
MIC ([5]; STR.11, 144 h): 0.25 µg/mL (≈ 0.456 µM)
MIC [6, 32]: 2.5 µg/mL (≈ 4.56 µM)
MIC [8, 34]: 10 µg/mL (≈ 18.3 µM)
MIC [9]: 5 µg/mL (≈ 9.13 µM)
MIC [10]: 1 µg/mL (≈ 1.83 µM)
MIC [11]: 10 µg/mL (≈ 18.3 µM)
MIC [12, 42]: 5 µg/mL (≈ 9.13 µM)
MIC [13, 43]: 10 µg/mL (≈ 18.3 µM)
MIC [14, 44]: 5 µg/mL (≈ 9.13 µM)
MIC [15, 45]: 1 µg/mL (≈ 1.83 µM)
MIC [16, 35]: > 100 µg/mL
MIC [17, 36]: > 100 µg/mL
MIC [18]: > 100 µg/mL
MIC [19, 46]: 2.5 µg/mL (≈ 4.56 µM)
MIC [20, 37]: > 100 µg/mL
MIC [21, 38]: > 100 µg/mL
MIC [22, 39]: 100 µg/mL (≈ 183 µM)
MIC [23, 47]: 2.5 µg/mL (≈ 4.56 µM)
MIC [24]: 80 µg/mL (≈ 146 µM)
MIC [25, 40]: > 80 µg/mL
MIC [26]: > 80 µg/mL
MIC [27]: 0.25 µg/mL (≈ 0.456 µM)
MIC [28, 48]: 2.5 µg/mL (≈ 4.56 µM)

C/C(=C\C(=O)OCc1ccc(C=NO)o1)C[C@@H]1OC[C@H](C[C@@H]2O[C@H]2[C@@H](C)[C@H](C)O)[C@@H](O)[C@H]1O [Example 7, 5-Hydroxyiminomethylfurfuryl monate A]
MIC [1]: 1 µg/mL (≈ 2.14 µM)
MIC [2]: 1 µg/mL (≈ 2.14 µM)
MIC [3]: 1 µg/mL (≈ 2.14 µM)
MIC [4]: ≤ 0.01 µg/mL
MIC [5, 41]: 0.5 µg/mL (≈ 1.07 µM)
MIC ([6]; R80/421, 18 h): 1 µg/mL (≈ 2.14 µM)
MIC [7, 33]: 0.25 µg/mL (≈ 0.535 µM)
MIC ([8]; W2827, 18 h): 5 µg/mL (≈ 10.7 µM)
MIC [9]: 2.5 µg/mL (≈ 5.35 µM)
MIC [10]: 2.5 µg/mL (≈ 5.35 µM)
MIC [11]: 2.5 µg/mL (≈ 5.35 µM)
MIC [12, 42]: 2.5 µg/mL (≈ 5.35 µM)
MIC [13, 43]: 2.5 µg/mL (≈ 5.35 µM)
MIC ([14]; 18 h): 2.5 µg/mL (≈ 5.35 µM)
MIC [15, 45]: 0.25 µg/mL (≈ 0.535 µM)
MIC ([16]; Proteus mirabilis, 889, 18 h): > 100 µg/mL
MIC ([17]; 18 h): > 100 µg/mL
MIC [18]: > 100 µg/mL
MIC ([19]; Bacillus subtilis, 6633, 18 h): 1 µg/mL (≈ 2.14 µM)
MIC ([20]; 18 h): > 100 µg/mL
MIC ([21]; 18 h): > 100 µg/mL
MIC ([22]; Pseudomonas aeruginosa, 10662, 18 h): > 100 µg/mL
MIC [23, 47]: 2.5 µg/mL (≈ 5.35 µM)
MIC [24]: 2.5 µg/mL (≈ 5.35 µM)
MIC ([25]; CY1, 18 h): > 80 µg/mL
MIC [26]: > 80 µg/mL
MIC [27]: 0.5 µg/mL (≈ 1.07 µM)

Reference: US4362743A, “Antibacterial monic acid esters” (Beecham Group Limited, priority 1980, dated 1982)
